Data from patent US20180252736A1, “CB2 RECEPTOR INTERNALIZATION” (Arena Pharmaceuticals, Inc., priority 2015, published 2018).
Entries after “also recorded” stand apart in the source; their conditions may differ.

Key:
[1] = test system: MIA-induced osteoarthritis in male Sprague Dawley rats; assay: Osteoarthritis pain model (MIA); type: in vivo, rat; conditions: for in vivo efficacy over time in the osteoarthritis pain model: oral dosing; for time following dosing up to which in vivo efficacy was maintained / time of peak efficacy following dosing / time following dosing at which in vivo efficacy was lost: osteoarthritis pain model
Text: Injection of monosodium iodoacetate (MIA) into a joint (J Rheumatol 14:130-1, 1987) inhibits the activity of glyceraldehyde-3-phosphate dehydrogenase in chondrocytes, resulting in disruption of glycolysis and eventually in cell death. The progressive loss of chondrocytes results in histological and morphological changes of the articular cartilage, closely resembling those seen in osteoarthritis patients.
Osteoarthritis was induced in 200 g male Sprague Dawley rats. After brief anesthesia by isoflurane, rats received a single intra-articular injection of MIA (2 mg) (Catalog #19148, Sigma Aldrich, Saint Louis, Mo.) dissolved in 0.9% sterile saline in a 50 μL volume administered through the patella ligament into the joint space of the left knee with a 30 G needle. Following injection, animals were allowed to recover from anesthesia before being returned to the main housing vivarium.
Typically during disease progression, there is an inflammation period of 0-7 days post-intra-articular injection followed by progressive degeneration of the cartilage and subchondral bone from days 14-55. Efficacy studies with a compound described herein took place from day 14 onwards and were performed twice a week with at least three days of wash-out in between each assay. Three different assays can be used to measure pain. Tactile allodynia can be measured via von Frey assay, hind limb paw weight distribution can be monitored using an incapacitance tester (Columbus Instruments, Columbus, Ohio), and hind limb grip strength can be measured using a grip strength meter (Columbus Instruments, Columbus, Ohio). Briefly, the von Frey assay was performed using the standard up/down method with von Frey filaments. Hind paw weight distribution was determined by placing rats in a chamber so that each hind paw rested on a separate force plate of the incapacitance tester. The force exerted by each hind limb (measured in grams) was averaged over a three second period. Three measurements are taken for each rat, and the change in hind paw weight distribution was calculated. Peak hind limb grip force was conducted by recoding the maximum compressive force exerted on the hind limb mesh gauge set on the grip strength meter. During testing, each rat was restrained and the paw of the injected knee was allowed to grip the mesh. The animal was then pulled in an upward motion until their grip was broken. Each rat was tested three times, with the contralateral paw used as a control.
A baseline was established for animals prior to administration of compounds. The MIA-treated groups of rats were then dosed with either vehicle (PEG400, orally), test compound (at 3 mg/kg, 10 mg/kg, and 30 mg/kg, orally), or morphine (3 mg/kg, subcutaneously). The dosing volume was 500 μL. One hour after dosing, von Frey assay, hind limb weight distribution and/or hind limb grip analysis was performed to measure the efficacy of the test compounds.

[2] = Plasma concentration in the osteoarthritis pain model studies; type: in vivo, rat; conditions: for course of plasma concentration: during the pain model time course
[3] = test system: human CB2 receptors; assay: CB2 receptor internalization assay (conventional fluorescence microscopy); type: cell-based
Method: (§1) Receptor internalization assays for the CB2 receptor were performed using a high content imaging system (e.g., IN Cell Analyzer, GE Healthcare Life Sciences, Pittsburgh, Pa.), or by conventional fluorescence microscopy with accessory image analysis software.
[…]. On the day of the assay, growth media was removed from the cell plate and replaced with 25 μL pre-warmed RPMI media. Additionally, 25 μL of pre-warmed RPMI media containing a fluorescent nuclear stain (Hoescht 33342 dye (1:500 dilution); Catalog #H-1399, Invitrogen,) and fluorophore-labeled antibody (Alexa-488 anti-HA monoclonal antibody (1:50 dilution); Catalog #A-21287, Invitrogen, Waltham, Mass.) was added to the cell plate. Test compounds or CP55,940 dissolved in DMSO were serially diluted in DMSO and then further diluted in RPMI to achieve 3× concentrations in 0.5% DMSO. […] Fluorescence microscopy images were captured for each well on the plate (minimum of 6 per well). The internalization of anti-HA antibody-labeled CB2 receptors results in redistribution of fluorescence from the cell surface to intracellular endosomes, which appear as punctate fluorescent granules within the cell. Quantification of receptor internalization was performed by measuring the Alexa-488 anti-HA monoclonal antibody-stained intracellular granule fluorescence intensities normalized per cell number in each well. […]

[4] = molecular target: T1, rat CB2 receptor (Rattus norvegicus, UniProt Q9QZN9); assay: as above; type: cell-based; design: expressed in transfected cells; conditions: for receptor internalization efficacy relative to CP55,940, rat CB2: fluorescence microscopy; for receptor internalization: FIG. 10 comparison
T1 sequence (Q9QZN9 1-360): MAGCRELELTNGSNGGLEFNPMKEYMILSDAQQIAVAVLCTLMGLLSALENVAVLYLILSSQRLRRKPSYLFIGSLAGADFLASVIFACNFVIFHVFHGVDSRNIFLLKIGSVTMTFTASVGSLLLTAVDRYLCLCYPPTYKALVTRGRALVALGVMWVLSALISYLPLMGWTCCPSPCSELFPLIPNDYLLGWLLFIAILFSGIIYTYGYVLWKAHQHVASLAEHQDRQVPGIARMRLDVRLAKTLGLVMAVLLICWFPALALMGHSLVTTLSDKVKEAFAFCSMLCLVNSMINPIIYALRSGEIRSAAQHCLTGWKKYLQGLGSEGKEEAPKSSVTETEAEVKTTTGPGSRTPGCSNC
Method: as §1
[…]. On the day of the assay, growth media was removed from the cell plate and replaced with 25 μL pre-warmed RPMI media. Additionally, 25 μL of pre-warmed RPMI media containing a fluorescent nuclear stain (Hoescht 33342 dye (1:500 dilution); Catalog #H-1399, Invitrogen,) and fluorophore-labeled antibody (Alexa-488 anti-HA monoclonal antibody (1:50 dilution); Catalog #A-21287, Invitrogen, Waltham, Mass.) was added to the cell plate. Test compounds or CP55,940 dissolved in DMSO were serially diluted in DMSO and then further diluted in RPMI to achieve 3× concentrations in 0.5% DMSO. Aliquots (25 μL) of diluted test compounds were added to assay plates, which were then incubated in a water bath at 37° C. for 1 hour. Compound containing media was removed at the end of the treatment period by inversion of the plate. The assay plate was washed twice with PBS (150 μL/well) and the cells were then fixed with 2% formaldehyde/PBS solution for 10 minutes at room temperature. Fluorescence microscopy images were captured for each well on the plate (minimum of 6 per well). The internalization of anti-HA antibody-labeled CB2 receptors results in redistribution of fluorescence from the cell surface to intracellular endosomes, which appear as punctate fluorescent granules within the cell. Quantification of receptor internalization was performed by measuring the Alexa-488 anti-HA monoclonal antibody-stained intracellular granule fluorescence intensities normalized per cell number in each well. Dose-response curves were generated using a minimum of 8 different test concentrations and triplicate determinations were made at each test concentration. Assay performance was monitored by inclusion of a standard CB2 reference agonist such as CP55,940 and agonist internalization efficacies were reported relative to that of the reference agonist.

[5] = molecular target: T1, rat CB2 receptor; assay: β-arrestin recruitment assay (PathHunter CHO-K1); type: cell-based; design: host or cells: PathHunter CHO-K1; conditions: relative to CP55,940
[6] = molecular target: T2, hCB2 (Homo sapiens, UniProt P34972); assay: β-arrestin recruitment assay (PathHunter CHO-K1); type: cell-based; design: host or cells: PathHunter CHO-K1; conditions: relative to CP55,940
[7] = test system: CB2 receptor over CB1 receptor; conditions: Eur. Urol. 2010 FIG. 2a; cited from earlier work
[8] = molecular target: T2, hCB2; conditions: cited from earlier work
[9] = molecular target: CB1 (Homo sapiens, UniProt P21554); conditions: read-out: potency in GTP-γS binding assays, CB1 receptor; cited from earlier work
Chain of CB1 (P21554 whole entry): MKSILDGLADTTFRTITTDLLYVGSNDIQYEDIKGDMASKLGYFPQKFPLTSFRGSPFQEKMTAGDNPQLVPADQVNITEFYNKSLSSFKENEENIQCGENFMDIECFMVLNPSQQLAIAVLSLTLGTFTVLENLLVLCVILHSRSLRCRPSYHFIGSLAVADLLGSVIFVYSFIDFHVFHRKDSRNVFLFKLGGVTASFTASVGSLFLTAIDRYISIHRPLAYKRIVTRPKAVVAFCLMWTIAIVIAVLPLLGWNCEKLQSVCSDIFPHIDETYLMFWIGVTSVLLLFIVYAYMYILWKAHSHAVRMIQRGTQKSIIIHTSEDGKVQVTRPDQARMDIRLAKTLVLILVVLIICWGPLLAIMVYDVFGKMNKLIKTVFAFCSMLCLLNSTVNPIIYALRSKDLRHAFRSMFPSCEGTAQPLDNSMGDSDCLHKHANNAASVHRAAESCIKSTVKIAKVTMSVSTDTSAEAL

T2 sequence (P34972 whole entry): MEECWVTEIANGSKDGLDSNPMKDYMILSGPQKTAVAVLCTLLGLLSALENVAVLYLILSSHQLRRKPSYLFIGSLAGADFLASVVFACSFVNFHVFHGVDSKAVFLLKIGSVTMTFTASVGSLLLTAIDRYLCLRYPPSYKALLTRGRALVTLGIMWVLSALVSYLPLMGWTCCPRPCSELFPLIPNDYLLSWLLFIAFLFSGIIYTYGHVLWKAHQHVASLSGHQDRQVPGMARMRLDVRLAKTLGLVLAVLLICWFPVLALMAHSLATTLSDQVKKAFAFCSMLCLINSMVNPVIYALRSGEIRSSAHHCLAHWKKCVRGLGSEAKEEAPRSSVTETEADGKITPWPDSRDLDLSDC

| Structure (SMILES) | in vivo efficacy over time in the osteoarthritis pain model [1] | time following dosing up to which in vivo efficacy was maintained [1] | course of plasma concentration [2] | receptor internalization efficacy relative to CP55,940, rat CB2 [4] | also measured |
| --- | --- | --- | --- | --- | --- |
| O=C(NC1(C(F)(F)F)CCC1)c1nn(-c2c[n+]([O-])ccn2)c2c1C[C@@H]1C[C@H]21 [Compound 765] | sustained in vivo efficacy | six | decreasing plasma concentrations | 99% | receptor internalization efficacy relative to CP55,940, human CB2 [3]: 97% |
| CNC(=O)[C@@H](NC(=O)c1nn(-c2c[n+]([O-])ccn2)c2c1C[C@H]1C[C@@H]21)C(C)(C)C [Compound 704] | rapid loss of in vivo efficacy |  | increasing plasma concentrations |  | time of peak efficacy following dosing [1]: one; β-arrestin efficacy compared to CP55,940, rat CB2 [5]: 88%; β-arrestin efficacy compared to CP55,940, human CB2 [6]: 106% |
| CCCCCCC(C)(C)c1cc(O)c(C2CC(=O)[C@H]3C[C@@H]2C3(C)C)c(OC(=O)/C=C/C(=O)O)c1 (some centres unmarked) [cannabinor] |  |  |  |  | selectivity measured in radioligand binding assays [7]: approximately 10 fold; agonist character at the CB2 receptor upon closer examination of the published data ([8]; Eur. Urol. 2010 FIG. 2b): only a partial agonist; agonist character at the human CB2 receptor as the publication suggests [8]: full agonist; selectivity for the CB2 receptor over the CB1 receptor (GTP-γS) [8]: 321 fold; EC50 ([8]; read-out: potency in GTP-γS binding assays, CB2 receptor): 0.0174 µM; EC50 [9]: 5.59 µM |
| CC(C)(NC(=O)c1nn(-c2c[n+]([O-])ccn2)c2c1C[C@@H]1C[C@H]21)C(F)(F)F [Compound 919] | sustained in vivo efficacy | six | rapidly declining plasma concentrations; also recorded: decreasing plasma concentrations | 92% | receptor internalization efficacy relative to CP55,940, human CB2 [3]: 95% |
| CC(C)(CO)NC(=O)c1nn(-c2ccc(F)cc2F)c2c1C[C@H]1C[C@@H]21 [Compound 493] | rapid loss of in vivo efficacy |  | high plasma concentrations that did not decline significantly until four hours following dosing | 58% | time following dosing at which in vivo efficacy was lost [1]: two and four; receptor internalization [4]: low receptor internalization |
| O=C(N[C@H](CO)C1CCOCC1)c1nn(-c2c[n+]([O-])ccn2)c2c1C[C@H]1C[C@@H]21 [Compound 841] | sustained in vivo efficacy | four | rapidly declining plasma concentrations; also recorded: decreasing plasma concentrations | 105% | time following dosing at which in vivo efficacy was lost [1]: six; concentration at 6 h ([2]; rat, plasma, oral, when efficacy was lost, read-out: plasma drug levels at the six hour timepoint): < 3 ng/mL; receptor internalization [4]: high receptor internalization |
| CC(CO)(CO)NC(=O)c1nn(-c2cc(C#N)ccn2)c2c1C[C@H]1C[C@@H]21 [Compound 820] | rapid loss of in vivo efficacy |  | high plasma concentrations |  | time of peak efficacy following dosing [1]: one; β-arrestin efficacy compared to CP55,940, rat CB2 [5]: 56%; β-arrestin efficacy compared to CP55,940, human CB2 [6]: 82% |
